In patent US20240381822A1, “PLANT PART QUALITY” (Valent BioSciences LLC, priority 2023, published 2024):

What was measured:
Format in all cases: in vivo
Cucumbers [1] = assay: Electrolyte leakage of cucumbers after cold storage (Example 3); details: for % Electrolyte Leakage: 2-minute dip, 5 degrees Celsius 11.5 days, then room temperature
From the text: Cucumbers were harvested and waxed and maintained at room temperature until treatment. Cucumbers were divided into 9 equal sets. Each treatment type contained 11-13 cucumbers peaches and was repeated 3 times for a total of 33-39 peaches per treatment. For treatment, water, (S)-abscisic acid (“S-ABA”), methyl jasmonate or a mixture of S-ABA and methyl jasmonate were applied to cucumber after harvest via a 2-minute dip at the following concentrations: 1) water only; 2) 0.3 millimolar (“mM”) S-ABA; 3) 3 mM S-ABA; 4) 0.3 mM methyl jasmonate; 5) 3 mM methyl jasmonate; 6) 0.3 mM S-ABA and 0.3 mM methyl jasmonate; 7) 0.3 mM S-ABA and 3 mM methyl jasmonate; 8) 3 mM S-ABA and 0.3 mM methyl jasmonate or 9) 3 mM S-ABA and 3 mM methyl jasmonate. Each treatment includes 0.025% Latron B-1956® (available from J. R. Simplot Company) as an adjuvant. All cucumbers were subsequently dried for 30 minutes and then stored at 5 degrees Celsius for 11.5 days. Following cold storage all cucumbers were placed at room temperature for 4 days and then evaluated for electrolyte leakage and decay on each of days 1, 2,3 and 4. For electrolyte leakage cucumbers were sliced and a 1-centimeter core sample (i.e. a disc) was taken from each slice. 10 discs were placed in each 50-milliliter centrifuge tube containing 30 milliliter of deionized water and shaken for 25 minutes. Electroconductivity was measured at time zero as soon as the treatments were processed (CO). Electroconductivity was measured again after the discs were shaken in the centrifuge tubes (C1). Finally, electroconductivity was measured after boiling the cucumber sample for 20 minutes and then cooled rapidly (C2). % electrolyte leakage was calculated by the following formula (C1−C0)/C2. Determination of unexpected results was calculated using the method described in Example 1. above.

[2] = test system: Summer Flame 34 variety Peaches; assay: Flesh browning of waxed peaches after cold storage (Example 2); details: for Fold Change from Control (Flesh Browning Average Score): 1.2 mM single active; for Flesh Browning Average Score: 1.2 mM single active in Prima Fresh 55EU wax, 5 degrees Celsius 25 days, 3 day room temperature, 6-point scale
Protocol: Flesh browning was determined using a 6-point scale developed by Crisosto G. M. 2015 wherein a score of 1=no browning, 2=very slight browning in the pit cavity, 3=slight browning in the pit cavity and surrounding tissue, 4=moderate browning on less than 50% of the flesh, 5=severe browning on 50% to 75% of the flesh and 6=extreme browning covering most of the flesh. A flesh browning score of more than 3 was determined as a “flesh browning incident” and a score of less than 3 was determined as “healthy fruit” for efficacy purposes.
(§1) Summer Flame 34 variety Peaches were harvested and maintained at room temperature until treatment. Peaches were divided into 4 equal sets. Each treatment type contained 32 peaches and was repeated 3 times for a total of 96 peaches per treatment. For treatment, water, (S)-abscisic acid (“S-ABA”), methyl jasmonate or a mixture of S-ABA and methyl jasmonate were mixed in Prima Fresh 55EU wax and applied in a semicommercial mini packing line to simulate commercial packing conditions. Active ingredients were mixed into the wax at the following concentrations: 1) wax only; 2) 1.2 mM S-ABA; 3) 1.2 mM methyl jasmonate; 4) 1.2 mM S-ABA and 1.2 mM methyl jasmonate. All peaches were immediately stored at 5 degrees Celsius for 25 days. Following cold storage all peaches were placed at room temperature for 3 day and then evaluated for flesh browning as described in Example 1, above and also for flesh mealiness.
(§2) Determination of unexpected results was calculated using the method described in Example 1, above.

[3] = test system: Flamin' Fury® variety Peaches; assay: Flesh browning of peaches after cold storage (Example 1); details: for % Healthy Fruit: 1-minute dip, 5 degrees Celsius 4 weeks, 1 day room temperature, flesh browning score less than 3
Protocol: ' Fury® variety Peaches were harvested and maintained at room temperature until treatment. Peaches were divided into 9 equal sets. Each treatment type contained 15 peaches and was repeated 3 times for a total of 45 peaches per treatment. For treatment, water, (S)-abscisic acid (“S-ABA”), methyl jasmonate or a mixture of S-ABA and methyl jasmonate were applied to peaches after harvest via a 1-minute dip at the following concentrations: 1) water only; 2) 0.33 millimolar (“mM”) S-ABA; 3) 3.3 mM S-ABA; 4) 0.33 mM methyl jasmonate; 5) 3.3 mM methyl jasmonate; 6) 0.33 mM S-ABA and 0.33 mM methyl jasmonate; 7) 0.3 mM S-ABA and 3.3 mM methyl jasmonate; 8) 3.3 mM S-ABA and 0.33 mM methyl jasmonate or 9) 3.3 mM S-ABA and 3.3 mM methyl jasmonate. Each treatment includes 0.025% Latron B-1956® (available from J. R. Simplot Company) as an adjuvant. All peaches were subsequently dried for 30 minutes and then stored at 5 degrees Celsius for 4 weeks. Following cold storage all peaches were placed at room temperature for 1 day and then evaluated for flesh browning. Flesh browning was determined using a 6-point scale developed by Crisosto G. M. 2015 wherein a score of 1=no browning, 2=very slight browning in the pit cavity, 3=slight browning in the pit cavity and surrounding tissue, 4=moderate browning on less than 50% of the flesh, 5=severe browning on 50% to 75% of the flesh and 6=extreme browning covering most of the flesh. A flesh browning score of more than 3 was determined as a “flesh browning incident” and a score of less than 3 was determined as “healthy fruit” for efficacy purposes. […] To determine if the mixtures provided unexpected results, the observed combined efficacy (“OCE”) was divided by the expected combined efficacy (“ECE”) wherein the expected ECE is calculated by the Abbott method: wherein ECE is the expected combined efficacy and in which A and B are the quality score provided by application of the single active ingredients. If the ratio between the OCE of the mixture and the ECE of the mixture is greater than 1, then greater than expected interactions are present in the mixture. (Gisi, Synergistic Interaction of Fungicides in Mixtures, The American Phytopathological Society, 86:11, 1273-1279,1996).

[4] = test system: Summer Flame 34 variety Peaches; assay: Flesh mealiness of waxed peaches after cold storage (Example 2); details: for Fold Change from Control (Flesh Mealiness Average Score): 1.2 mM single active; for Flesh Mealiness Average Score: 1.2 mM single active in Prima Fresh 55EU wax, 5 degrees Celsius 25 days, 3 day room temperature, 3-point scale
From the text: as §1
Flesh mealiness was determined using a 3-point scale developed by Crisosto G. M. 2015 wherein a score of 1=juicy fruit, 2=moderately mealy fruit (small amount of juice released upon squeezing) and 3=severely mealy fruit (almost no juice released upon squeezing). A flesh mealiness score of 2 or more was determined as a “flesh mealiness incident” and a score of 1 was determined as “healthy fruit” for efficacy purposes.
as §2

Cucumbers [5] = assay: Decay evaluation of cucumbers after cold storage (Example 3); details: for % Healthy Fruit (decay): 2-minute dip, 5 degrees Celsius 11.5 days, then room temperature, 100% minus % disease incidence
From the text: Cucumbers were harvested and waxed and maintained at room temperature until treatment. Cucumbers were divided into 9 equal sets. Each treatment type contained 11-13 cucumbers peaches and was repeated 3 times for a total of 33-39 peaches per treatment. For treatment, water, (S)-abscisic acid (“S-ABA”), methyl jasmonate or a mixture of S-ABA and methyl jasmonate were applied to cucumber after harvest via a 2-minute dip at the following concentrations: 1) water only; 2) 0.3 millimolar (“mM”) S-ABA; 3) 3 mM S-ABA; 4) 0.3 mM methyl jasmonate; 5) 3 mM methyl jasmonate; 6) 0.3 mM S-ABA and 0.3 mM methyl jasmonate; 7) 0.3 mM S-ABA and 3 mM methyl jasmonate; 8) 3 mM S-ABA and 0.3 mM methyl jasmonate or 9) 3 mM S-ABA and 3 mM methyl jasmonate. Each treatment includes 0.025% Latron B-1956® (available from J. R. Simplot Company) as an adjuvant. All cucumbers were subsequently dried for 30 minutes and then stored at 5 degrees Celsius for 11.5 days. Following cold storage all cucumbers were placed at room temperature for 4 days and then evaluated for electrolyte leakage and decay on each of days 1, 2,3 and 4. Decay evaluation was performed by counting the number of cucumbers displaying decay and calculating the percentage of affected cucumbers. Decay severity was evaluated using a 1-3 score system, wherein 1=low, 2=medium and 3=high. Healthy fruit was calculated by subtracting the % of disease incidence from 100%. Determination of unexpected results was calculated using the method described in Example 1. above.

Row | Compound | Fold Change from Control (% Electrolyte Leakage) (Cucumbers [1]; 0.3 mM single active) | % Electrolyte Leakage (Cucumbers [1]; 0.3 mM single active) [%] | Fold Change from Control (% Electrolyte Leakage) (Cucumbers [1]; 3 mM single active) | % Electrolyte Leakage (Cucumbers [1]; 3 mM single active) [%] | Fold Change from Control (Flesh Browning Average Score) [2] | Flesh Browning Average Score [2] | Fold Change from Control (% Healthy Fruit) ([3]; 0.33 mM single active) | % Healthy Fruit ([3]; 0.33 mM single active) [%] | Fold Change from Control (% Healthy Fruit) ([3]; 3.3 mM single active) | % Healthy Fruit ([3]; 3.3 mM single active) [%] | Fold Change from Control (Flesh Mealiness Average Score) [4] | Flesh Mealiness Average Score [4] | Fold Change from Control (% Healthy Fruit, decay) (Cucumbers [5]; 0.3 mM single active) | % Healthy Fruit (decay) (Cucumbers [5]; 0.3 mM single active) [%] | Fold Change from Control (% Healthy Fruit, decay) (Cucumbers [5]; 3 mM single active) | % Healthy Fruit (decay) (Cucumbers [5]; 3 mM single active) [%]
1 | CC/C=C\CC1C(=O)CCC1CC(=O)OC (centres unmarked) [MJ, methyl jasmonate] | −0.06 | 60.3 | −0.07 | 59.7 | −0.09 | 2.79 | 1.18 | 28.0 | 2.26 | 41.8 | −0.10 | 1.50 | −0.22 | 61.5 | −0.09 | 71.4
2 | CC1=CC(=O)CC(C)(C)[C@@]1(O)/C=C/C(C)=C/C(=O)O [S-ABA, (S)-abscisic acid] | −0.05 | 61.3 | −0.05 | 61.3 | −0.016 | 3.03 | 0.35 | 17.3 | −0.33 | 8.6 | −0.006 | 1.66 | 0.05 | 82.1 | −0.29 | 55.7
